Assay results: patent US7244462B2, “Amino acid derivative and sweetening agent” (Ajinomoto Co., Inc., priority 2003, dated 2007)
Where “and” joins values, the source holds several entries; their conditions need not be identical. Equal entries are not always repeated. Where two headings read alike, the source gives them in different places. Peptide text beside a SMILES is read from it.

How the values were obtained:
[1] = Sensory test: degree of sweetness compared with sucrose (sugar) solution; details: for Degree of sweetness (multiplying power of sweetness): compared with a 4 to 5% sucrose solution
Text: The derivative of the invention, i.e., the compound and the form of the salt thereof of the invention was proven to have strong sweetness with a quality of sweetness that is similar to sugar, as a result of a sensory test. For example, the degree of sweetness of 2-amino-4,5-dihydroxy-4-(3-indolylmethyl)pentanoic acid (mixture of the (2S,4S) isomer and (2R,4R) isomer at a ratio of 1:1) was about 1250 times as high as that of sugar, and the degree of sweetness of (2R,4R)-2-amino-4-hydroxy-4-ethylcarbamoyl-4-(3-indolylmethyl)butyric acid was about 1600 times as high as that of sugar. […] Structure and results of the sensory test on several synthesized amino acid derivatives (represented by the following formula (1)) are presented in Table 1.

[2] = Stability (half life) in aqueous acidic solution, citrate buffer pH 3, 70° C.; type: physicochemical; details: citrate buffer solution of pH=3, at 70° C.
[3] = (2S,4S) isomer derived from natural plant; literature report; cited from earlier work
[4] = compared with a 5% sugar solution

| Structure (SMILES) | Degree of sweetness (multiplying power of sweetness) [1] | Degree of sweetness [1, 4] | Degree of sweetness ([1]; sensory test) | half-life [2] | Degree of sweetness [3] |
| --- | --- | --- | --- | --- | --- |
| CCNC(=O)[C@@](O)(Cc1c[nH]c2ccccc12)C[C@@H](N)C(=O)O [Compound No. 8, (2R,4R)-2-amino-4-hydroxy-4-ethylcarbamoyl-4-(3-indolylmethyl)butyric acid] | about 1600 | About 1600 times | about 1600 times as high as that of sugar | ~4.04 days |  |
| CCC(O)(Cc1c[nH]c2ccccc12)CC(N)C(=O)O (stereo not drawn) [Compound No. 6, 2-amino-4-hydroxy-4-(3-indolylmethyl)hexanoic acid] | about 500 | About 500 times |  |  |  |
| N[C@@H](C[C@@](O)(Cc1c[nH]c2ccccc12)C(=O)O)C(=O)O [monatin, (2S,4S)-2-amino-4-carboxy-4-hydroxy-5-(3-indolyl)pentanoic acid] |  |  |  |  | 800 times of sucrose and 1400 times of sucrose |
| CNC(=O)[C@@](O)(Cc1c[nH]c2ccccc12)C[C@@H](N)C(=O)O [Compound No. 7, (2R,4R)-2-amino-4-hydroxy-4-methylcarbamoyl-4-(3-indolylmethyl)butyric acid] | about 200 | About 200 times |  |  |  |
| N[C@H](C[C@H](Cc1c[nH]c2ccccc12)C(=O)O)C(=O)O [Compound No. 1, (2R,4S)-2-amino-4-(3-indolyl)methyl pentandioic acid] | about 200 | About 200 times |  |  |  |
| CC(O)(Cc1c[nH]c2ccccc12)CC(N)C(=O)O (stereo not drawn) [Compound No. 5, 2-amino-4-hydroxy-4-(3-indolylmethyl)pentanoic acid] | about 900 | About 900 times |  |  |  |
| NC(CC(O)(CO)Cc1c[nH]c2ccccc12)C(=O)O (mixture of isomers) [Compound No. 4, (2S,4R)- and (2R,4S)-2-amino-4,5-dihydroxy-4-(3-indolylmethyl)pentanoic acid mixture] | about 750 | About 750 times |  |  |  |
| COC(=O)[C@H](Cc1ccccc1)NC(=O)[C@@H](N)CC(=O)O [aspartame, reference compound] (H-Asp-Phe-OMe) |  |  |  | ~1.46 days |  |
| Cc1ccc2c(CC(O)(C[C@H](N)C(=O)O)C(=O)O)c[nH]c2c1 (stereo partly drawn) [Compound No. 2, 4-hydroxy-4-(6-methylindole-3-ylmethyl)glutamic acid] | about 650 | About 650 times |  |  |  |
| NC(CC(O)(CO)Cc1c[nH]c2ccccc12)C(=O)O (mixture of isomers) [Compound No. 3, (2S,4S)- and (2R,4R)-2-amino-4,5-dihydroxy-4-(3-indolylmethyl)pentanoic acid mixture] | about 1250 | About 1250 times | about 1250 times as high as that of sugar |  |  |
